# Results: paper PMC11678425, “(-)-Syringaresinol Exerts an Antidepressant-like Activity in Mice by Noncompetitive Inhibition of the Serotonin Transporter” (Pharmaceuticals, 2024)
# What was measured:
# [1] = test system: hSERT S1 mutants (Y95F, I172F, S438T); assay: APP^+ uptake, S1 site mutants compared with WT; type: cell-based, human
# Procedure: HeLa cells were cultured in Dulbecco’s Modified Eagle’s Medium supplemented with 10% fetal bovine serum, 100 units/mL penicillin, and 100 μg/mL streptomycin at 37 °C in a humidified 5% CO2 incubator. Cells grown at ~70% confluence in a 6 cm culture dish were transfected with hSERT cDNA in pcDNA3.1 by lipofectamine 2000. Transfected cells were incubated for 12 h at 37 °C with 5% CO2 and then transferred into 96-well plates. After being grown for an additional 12–16 h, the cells were then assayed for APP^+ uptake or ASP^+ binding.
# Measurement of transport or ligand binding activity of SERT was performed by using its fluorescent substrate (APP^+) or ligand (ASP^+), respectively. The cells transiently expressing WT or mutants of hSERT were applied for various treatments. Briefly, the cells were washed twice with 100 μL KRH buffer containing 20 mM HEPES (Neofroxx, Einhausen, Germany), pH 7.4, 120 mM NaCl, 1.3 mM KCl, 2.2 mM CaCl2, 1.2 mM MgSO4, and 0.1% (w/v) glucose. APP^+ uptake was measured by adding 100 μL KRH buffer containing 2 μM APP^+ and incubating for 5 min at 22 °C. Excess APP^+ was then removed by 3× rapid washing with 100 μL KRH buffer each time. The extent of APP^+ accumulated in the cells was determined by fluorescence spectrometry with an Infinite 200 Pro microplate reader (Tecan, Männedorf, Switzerland). […]
# c-Fos = c-Fos immunohistochemistry in hippocampus of CUMS mice; type: in vivo, mouse; details: same dosage as fluoxetine (10 mg/kg i.p.)
# Source text: Figure 8 SYR effects on the expression of c-Fos and synaptic proteins in the hippocampus. (A) Representative immunohistochemical images of c-Fos expression in the hippocampus with the indicated treatments. (B) Quantitative analysis for hippocampal c-Fos expression with various treatments. Protein expression level is expressed as a percentage of c-Fos fluorescence measured in the control group. Bars represent the mean ± SEM (n = 4). ** p < 0.01 compared with the control or CUMS group by one-way ANOVA followed by post hoc tests. (C) Representative immunoblots of the synaptic proteins BDNF, PSD-95, GluA1, and vGluT1 with various treatments. (D–G) Quantification of the expression of synaptic proteins BDNF (D), PSD-95 (E), GluA1 (F), and vGluT1 (G). The expression level is expressed as a percentage of the integrated density obtained from the control group. Bars represent the mean ± SEM (n = 4). * p < 0.05, ** p < 0.01 by one-way ANOVA followed by post hoc tests.
# Mouse mPFC and hippocampal slices were prepared as previously described. Briefly, mice were deeply anesthetized with 4% pentobarbital sodium (Sigma-Aldrich, Saint Louis, MI, USA), and perfused transcardially with PBS, followed by 4% phosphate-buffered paraformaldehyde. […]
# hSERT T497A = target: T1, hSERT T497A (Homo sapiens, UniProt P31645, T497A); assay: ASP^+ binding, hSERT T497A; details: S2 site mutant, read-out: SYR IC50 for Binding
# T1 construct: forward and reverse primers were used to amplify a full-length hSERT; expressed in transfected cells; host or cells: HeLa cells, transient, pcDNA3.1
# T1 sequence (P31645 whole entry T497A): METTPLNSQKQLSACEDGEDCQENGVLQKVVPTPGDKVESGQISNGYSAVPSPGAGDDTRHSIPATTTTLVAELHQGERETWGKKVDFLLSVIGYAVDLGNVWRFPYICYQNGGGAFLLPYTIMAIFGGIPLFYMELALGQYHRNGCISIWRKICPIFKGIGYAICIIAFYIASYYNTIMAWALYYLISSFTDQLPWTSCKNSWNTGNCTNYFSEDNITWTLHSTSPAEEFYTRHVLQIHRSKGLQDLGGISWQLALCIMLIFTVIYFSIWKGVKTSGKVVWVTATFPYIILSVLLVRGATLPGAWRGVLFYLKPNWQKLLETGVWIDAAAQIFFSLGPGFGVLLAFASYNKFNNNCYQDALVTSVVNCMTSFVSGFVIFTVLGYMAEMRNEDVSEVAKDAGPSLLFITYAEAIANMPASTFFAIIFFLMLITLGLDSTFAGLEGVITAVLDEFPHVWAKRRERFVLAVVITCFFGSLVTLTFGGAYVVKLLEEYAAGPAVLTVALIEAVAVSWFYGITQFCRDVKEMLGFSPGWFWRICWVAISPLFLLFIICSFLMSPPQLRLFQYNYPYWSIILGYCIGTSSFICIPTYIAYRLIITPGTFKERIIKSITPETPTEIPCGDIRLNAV
smiles,measurement,setting,value
"COc1cc([C@@H]2OC[C@@H]3[C@H]2CO[C@H]3c2cc(OC)c(O)c(OC)c2)cc(OC)c1O [SYR, (-)-syringaresinol]",SYR IC50 for APP^+ uptake relative to WT,[1],3- to 10 fold
same,CUMS-induced decrease in expression of c-Fos in the hippocampus,c-Fos,effectively alleviate
same,IC50,hSERT T497A,43.7 ± 2.6 µM
